Patent publication US20230212222A1 (ANYGEN CO., LTD., priority 2020, published 2023)

What was measured:
[1] = system: HSL, ATGL and Perilipin A in WAT cells; assay: mRNA expression of lipolysis signaling factors by RT-PCR in WAT; format: cell-based, mice; conditions: versus isoproterenol positive control
Procedure: In addition, the mRNA expression levels of HSL (hormone-sensitive lipase), ATGL (adipose triglyceride lipase) and Perilipin A, which are important factors for lipolysis signaling according to HKFY-34 treatment, were analyzed through RT-PCR (FIG. 79). […] In addition, it was confirmed that the mRNA expression of all factors was enhanced due to GPR39 through GPR39 siRNA (FIGS. 81 to 83).

[2] = system: pERK and pPKA in 3T3-L1 cells; assay: pERK and pPKA expression by western blot in 3T3-L1 cells; format: cell-based; conditions: FIG. 85
Procedure: (§1) In order to analyze the mechanism of lipolytic ability according to the HKFY derivative treatment in 3T3-L1 cells and WAT cells, the expression levels of pERK and pPKA were analyzed (FIGS. 85 and 86).
(§2) Specifically, protein was purified from 3T3L-1 cells (Korea Cell Line Bank) and WAT (tissue culture using mice purchased from Central Lab. Animal Inc.) treated with the HKFY derivatives, and then each antibody for pERK, ERK, pPKA, and PKA expressed in mice was used, and the expression level of each protein due to the derivatives was measured through western blot.

[3] = system: 3T3-L1 cells; assay: lipolytic ability (secreted glycerol) in 3T3-L1 cells; format: cell-based
Procedure: In addition, lipolytic ability according to the HKFY-34 treatment by concentration (100 nM, 500 nM, […] (FIG. 84). When the signal of lipolysis is transmitted, lipid droplet glycerol and free fatty acid in adipocytes are secreted as final products and come out of the cell. At this time, the degree of lipolysis can be confirmed by quantifying the secreted glycerol. Isoproterenol, a positive control group, is an agonist of β-adrenergic receptors and mainly promotes lipolytic ability in adipocytes.

[4] = target: T1, GPR39 (Homo sapiens, UniProt O43194); assay: luciferase assay system (SRE luciferase reporter gene) for GPR39 in CV-1 cells
T1 sequence (O43194 1-453): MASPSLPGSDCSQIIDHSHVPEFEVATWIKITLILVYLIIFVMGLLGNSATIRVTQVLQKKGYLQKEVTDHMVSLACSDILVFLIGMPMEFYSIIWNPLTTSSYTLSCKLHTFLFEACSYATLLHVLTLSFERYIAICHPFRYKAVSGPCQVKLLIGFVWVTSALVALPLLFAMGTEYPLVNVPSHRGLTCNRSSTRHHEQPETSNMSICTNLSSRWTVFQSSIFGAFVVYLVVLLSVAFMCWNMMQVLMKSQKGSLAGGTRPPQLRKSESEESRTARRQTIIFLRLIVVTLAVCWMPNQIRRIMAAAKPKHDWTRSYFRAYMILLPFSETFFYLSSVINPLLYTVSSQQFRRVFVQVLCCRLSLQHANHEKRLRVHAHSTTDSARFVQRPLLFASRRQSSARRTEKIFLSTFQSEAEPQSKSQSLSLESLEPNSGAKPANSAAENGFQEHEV
Procedure: Specifically, the fibroblast cell line CV-1 (1×10^5 cells/ml, Korea Cell Line Bank) was cultured in a 96 well cell culture plate for 24 hours, and then treated with GPR39 inserted into adenovirus and SRE (serum response element) luciferase at 50 MOI (multiplicity of infection) and 25 MOI virus for 3 hours, respectively, and then cultured for 24 hours.

[5] = system: INS-1, a rat insulinoma cell; assay: glucose-dependent insulin secretion ability test in INS-1 (rat insulin ELISA); format: cell-based
Procedure: In this regard, in order to confirm the effect of the HKFY derivative, a candidate GPR39 agonist, on insulin secretion ability, a glucose-dependent insulin secretion ability test was performed in INS-1 (Korea Cell Line Bank), a rat insulinoma cell (FIG. 75).
Specifically, when INS-1 cells were treated with 1 or 10 μM of HKFY-34 in 2.8 mM glucose similar to a physiological blood glucose level or 11.1 mM glucose, a high blood glucose level, the insulin secretion ability was confirmed using a rat insulin ELISA.
In addition, through GPR39 knock-down experiment using GPR39 siRNA, it was confirmed that HKFY-34 enhances insulin secretion through the GPR39 receptor.

[6] = system: pERK and pPKA in WAT cells; assay: pERK and pPKA expression by western blot in WAT; format: cell-based, mice; conditions: FIG. 86
Procedure: as §1, §2

[7] = target: T1, GPR39; assay: calcium influx assay system (aequorin) in CV-1 cells; format: cell-based; parameters: host or cells: CV-1 fibroblast cell line, lipofectamine transfection; conditions: CV-1 cells transfected with human GPR39, Gαq, 6 hours
[8] = target: T2, NTSR1 (Homo sapiens, UniProt P30989); assay: luciferase assay system, ghrelin receptor family selectivity; format: cell-based; conditions: compared with intrinsic ligand, FIG. 74
T2 construct: expressed in transfected cells
T2 sequence (P30989 whole entry, species assumed): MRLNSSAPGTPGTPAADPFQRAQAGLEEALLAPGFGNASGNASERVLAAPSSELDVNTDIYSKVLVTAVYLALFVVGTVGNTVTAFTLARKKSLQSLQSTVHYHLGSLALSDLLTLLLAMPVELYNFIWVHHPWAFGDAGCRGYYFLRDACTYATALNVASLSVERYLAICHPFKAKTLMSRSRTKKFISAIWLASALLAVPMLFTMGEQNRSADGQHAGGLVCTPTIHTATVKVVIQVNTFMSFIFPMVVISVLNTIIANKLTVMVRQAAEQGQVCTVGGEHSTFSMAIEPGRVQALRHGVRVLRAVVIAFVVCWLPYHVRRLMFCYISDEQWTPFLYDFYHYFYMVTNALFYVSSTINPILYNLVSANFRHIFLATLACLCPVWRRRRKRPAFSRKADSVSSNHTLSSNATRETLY
Procedure: (§3) In addition, through the activity test of the HKFY derivatives for similar receptors to GPR39, ghrelin receptor family (ghrelin receptor (GHSR), motilin receptor (MTLR), neurotensin receptor (NTSR1 & NTSR2), neuromedin U receptor (NMU1 & NMU2), TRH (thyrotropin releasing hormone) receptor (TRHR)), the selectivity and specificity for the GPR39 receptor were confirmed.
(§4) Specifically, the degree of activity between the intrinsic ligand and HKFY-34 for each receptor was analyzed using a luciferase assay system (FIG. 74).

[9] = target: T3, NMU2 (Homo sapiens, UniProt Q9GZQ4); assay: as above; format: cell-based; conditions: compared with intrinsic ligand, FIG. 74
T3 construct: expressed in transfected cells
T3 sequence (Q9GZQ4 whole entry, species assumed): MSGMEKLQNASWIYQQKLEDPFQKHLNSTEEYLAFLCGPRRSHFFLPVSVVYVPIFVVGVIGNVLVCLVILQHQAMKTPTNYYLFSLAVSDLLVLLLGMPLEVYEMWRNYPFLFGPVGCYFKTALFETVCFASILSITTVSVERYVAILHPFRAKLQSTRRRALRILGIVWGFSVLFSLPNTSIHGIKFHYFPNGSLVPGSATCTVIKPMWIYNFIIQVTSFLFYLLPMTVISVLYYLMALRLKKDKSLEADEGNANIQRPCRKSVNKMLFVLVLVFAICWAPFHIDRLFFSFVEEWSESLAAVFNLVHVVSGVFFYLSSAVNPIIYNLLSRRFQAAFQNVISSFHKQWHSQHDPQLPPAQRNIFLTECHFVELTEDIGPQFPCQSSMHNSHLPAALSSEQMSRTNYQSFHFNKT
Procedure: as §3, §4

[10] = target: T4, NTSR2 (Homo sapiens, UniProt O95665); assay: as above; format: cell-based; conditions: compared with intrinsic ligand, FIG. 74
T4 construct: expressed in transfected cells
T4 sequence (O95665 whole entry, species assumed): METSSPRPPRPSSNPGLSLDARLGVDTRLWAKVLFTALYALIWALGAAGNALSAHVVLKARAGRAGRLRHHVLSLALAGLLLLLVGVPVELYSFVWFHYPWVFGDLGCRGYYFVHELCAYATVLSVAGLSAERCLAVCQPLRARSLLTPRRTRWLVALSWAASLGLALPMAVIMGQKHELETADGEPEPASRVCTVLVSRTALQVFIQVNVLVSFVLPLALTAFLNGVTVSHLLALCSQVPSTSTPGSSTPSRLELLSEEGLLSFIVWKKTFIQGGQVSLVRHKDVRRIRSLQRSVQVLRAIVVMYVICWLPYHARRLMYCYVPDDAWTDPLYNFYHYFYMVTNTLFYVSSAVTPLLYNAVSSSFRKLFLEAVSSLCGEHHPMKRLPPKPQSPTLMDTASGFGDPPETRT
Procedure: as §3, §4

[11] = target: T5, GHSR (Homo sapiens, UniProt Q92847); assay: as above; format: cell-based; conditions: compared with intrinsic ligand, FIG. 74
T5 construct: expressed in transfected cells
T5 sequence (Q92847 whole entry, species assumed): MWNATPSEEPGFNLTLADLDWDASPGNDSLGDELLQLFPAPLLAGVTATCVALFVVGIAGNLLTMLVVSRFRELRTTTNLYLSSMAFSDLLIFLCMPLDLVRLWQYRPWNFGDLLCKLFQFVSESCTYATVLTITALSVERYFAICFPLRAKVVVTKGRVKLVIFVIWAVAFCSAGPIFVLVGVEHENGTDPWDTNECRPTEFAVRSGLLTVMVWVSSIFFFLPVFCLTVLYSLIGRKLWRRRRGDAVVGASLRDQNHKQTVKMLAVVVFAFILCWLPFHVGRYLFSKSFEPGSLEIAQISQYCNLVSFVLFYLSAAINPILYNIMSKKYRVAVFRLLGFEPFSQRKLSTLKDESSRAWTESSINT
Procedure: as §3, §4

[12] = target: T6, NMU1 (Homo sapiens, UniProt Q9HB89); assay: as above; format: cell-based; conditions: compared with intrinsic ligand, FIG. 74
T6 construct: expressed in transfected cells
T6 sequence (Q9HB89 whole entry): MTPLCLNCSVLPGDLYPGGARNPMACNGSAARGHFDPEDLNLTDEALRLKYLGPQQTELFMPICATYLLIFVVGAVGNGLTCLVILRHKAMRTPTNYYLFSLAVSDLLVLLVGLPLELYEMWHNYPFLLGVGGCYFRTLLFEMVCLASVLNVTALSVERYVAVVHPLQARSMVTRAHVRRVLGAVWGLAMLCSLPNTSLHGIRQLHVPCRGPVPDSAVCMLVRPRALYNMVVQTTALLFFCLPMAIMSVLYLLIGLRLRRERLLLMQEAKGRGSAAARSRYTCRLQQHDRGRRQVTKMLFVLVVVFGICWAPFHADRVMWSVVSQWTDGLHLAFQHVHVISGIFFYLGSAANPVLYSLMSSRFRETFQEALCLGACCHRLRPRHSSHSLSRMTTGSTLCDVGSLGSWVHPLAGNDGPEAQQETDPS
Procedure: as §3, §4

[13] = system: C57BL6/J mice with high-fat feed (DIO); assay: insulin level in mouse model of obesity disease (DIO); format: in vivo; conditions: FIG. 90
Procedure: In addition, the glucose tolerance level and insulin level according to HKFY-34 treatment in a mouse model of obesity disease were analyzed (FIGS. 89 and 90).
Specifically, in the glucose tolerance level and insulin level analysis experiment, the experiment was performed by changing the mouse model of diabetes mellitus disease into a mouse model of obesity disease (DIO), in which obesity was induced by providing male C57BL6/J mice (6 to 7-week-old, Central Lab. Animal Inc.) with a high-fat feed (60% fat chow) for 5-6 weeks.

What does the source list for `CCCCCCCC(=O)NCCCC[C@H](NC(=O)[C@@H](N)Cc1cn(C(c2ccccc2)c2ccccc2)cn1)C(=O)N[C@H](Cc1ccc(C)cc1)C(=O)N[C@@H](Cc1ccc(O)cc1)C(=O)O` [HKFY-34, ((R)-2-((S)-2-((S)-2-amino-3-(1-benzhydryl-1H-imidazol-4-yl)propanamido)-6-octanamidohexanamido)-3-(p-tolyl)propanoyl)-L-tyrosine]?
mRNA expression of ATGL [1]: increased to a degree similar to that of isoproterenol; mRNA expression of HSL [1]: increased to a degree similar to that of isoproterenol; mRNA expression of Perilipin A [1]: increased to a degree similar to that of isoproterenol; expression of pERK compared to ERK [2]: increased; expression of pPKA compared to PKA [2]: increased; lipolytic ability ([3]; HKFY-34 concentration 10 μM or higher): significantly increased; lipolytic ability ([3]; by concentration, FIG. 84): increased in a concentration dependent manner; EC50 ([4]; EC50, CV-1 cells, GPR39 and SRE luciferase adenovirus, treated 6 hours, luminometer): 7 ± 1 nM; binding capacity and activity to the GPR39 receptor (in words) ([4]; FIG. 73 and Table 4, luciferase and calcium influx assay): excellent; EC50 ([4]; Reporter gene assay EC50, Table 4, luciferase assay system): 6.7 ± 0.7 nM; ECmax value (in words) ([4]; comment on Table 3): high ECmax value; activity level for GPR39 (in words) ([4]; comment on Table 3): higher activity level than other HJKFY derivatives; activity level for GPR39 (in words) ([4]; comment on Table 3, listed as HIKFY-34): most excellent activity; insulin secretion ([5]; INS-1, high blood glucose level (11.1 mM glucose), 1 or 10 μM): enhanced at all treatment concentrations; change in insulin secretion level ([5]; INS-1, low blood glucose level (2.8 mM glucose), 1 or 10 μM): insignificant; insulin secretion ability ([5]; cells treated with GPR39 siRNA compared to scrambled siRNA, 11.1 mM glucose): not increased; expression of pERK compared to ERK [6]: increased; expression of pPKA compared to PKA [6]: increased; Ca2+ influx assay ECmax (-fold induction over basal) [7]: 2.4 ± 4.59 -fold induction over basal; EC50 ([7]; read-out: Ca2+ influx assay EC50): 2.7 ± 0.5 nM; activity for NTSR1 [8]: very low; activity for NMU2 [9]: very low; activity for NTSR2 [10]: very low; activity for GHSR [11]: very low; activity for NMU1 [12]: very low; insulin secretion level [13]: increased
